{"source": "patent US20070265196A1", "about": "“Method of Modulating Pro-Inflammatory and Inflammatory Activity Mediated by C-Reactive Protein” (MEDVET SCIENCE PTY., LTD., priority 2004, published 2007)", "key": {"[1]": {"test_system": "HUVEC expression of E-selectin, VCAM-1 and ICAM-1", "experiment": "Induction of adhesion molecule expression in HUVEC by the substance itself (flow cytometry)", "format": "cell-based, human", "settings": "for effect of heating at 65° C. for 1 hour on activity (E-selectin induction): heated 65° C., serum free medium", "experimental": "(§1) Human umbilical vein endothelial cells (HUVEC) and bovine aortic endothelial cells (BAEC) were isolated and cultured as described previously (Wall et al (1978)). Cells were used at passages 2 to 3 for HUVEC and passages 3-10 for BAEC. For detection of adhesion molecules, HUVEC were incubated overnight in Opti-MEM serum free medium (Gibco, Invitrogen Corporation) in the presence or absence of HDL and then treated with recombinant human C-reactive protein (Calbiochem) for 5 hrs unless indicated otherwise. After the treatment, cells were washed with medium M199 and incubated with primary monoclonal antibodies against E-selectin, VCAM-1, ICAM-1 or isotype-matched nonrelevant control antibodies for 30 min as described previously (Gamble et al (1993)). Cells were then incubated with fluorescein isothiocyanate-conjugated secondary antibody for 30 min. The cells were then harvested by trypsinization and fixed in 2.5% formaldehyde (antibody binding prior to trypsinizing has been reported to prevent the partial hydrolyzation of the surface adhesion molecules (Grabner et al (2000))). The expression of cell-surface adhesion molecules was measured as fluorescence intensity by use of a Coulter Epics Profile XL flow cytometer. Unless stated otherwise, the results represent mean fluorescence of the positive population±SEM from one experiment and are representative at least three independent experiments. Differences between means were evaluated by Student's t-tests. ANOVA was used to identify statistical significance of multiple comparisons."}, "[2]": {"test_system": "C-reactive protein-induced expression of E-selectin, VCAM-1 and ICAM-1", "experiment": "Inhibition of C-reactive protein-induced cell-surface adhesion molecule expression in HUVEC (flow cytometry)", "format": "cell-based, human", "settings": "for effect on C-reactive protein-induced expression of adhesion molecules (E-selectin, ICAM-1, VCAM-1): 16 hrs preincubation in serum-free medium, then C-reactive protein 10 μg/ml for 5 hrs; for effect of antioxidant on PLPC-dependent inhibition of C-reactive protein-induced E-selectin expression: HUVEC preincubated 16 hrs with 35 μM PLPC in presence of the antioxidant", "experimental": "as §1\nAs described previously (Ashby et al (1998)) the lipoproteins were isolated from normal healthy adult donors by sequential ultracentrifugation in their appropriate density range: total HDL 1.07<d<1.21 and LDL 1.019<d<1.055 g/ml. The resulting preparations of lipoproteins were dialyzed against endotoxin-free PBS (pH 7.4) prior to use. Discoidal reconstituted HDL containing apoA-I and PLPC, were prepared by the cholate dialysis method described by Matz (1982). Small unilamellar vesicles (SUVs) containing either PLPC or 1-palmitoyl-2-oleoyl-sn-glycero-3-phosphocholine (POPC), in butylated hydroxytoluene (BHT) (molar ratio of PC to BHT, 10:1), were prepared in PBS precisely as described by Jonas (1986). Oxidation of SUV was produced by incubation with 5 μM CuSO4 in the absence of BHT for 48 hours at 37° C."}, "[3]": {"test_system": "adherence of U937 cells to C-reactive protein-activated BAEC", "experiment": "Adherence of U937 cells to C-reactive protein-treated BAEC", "format": "cell-based, bovine", "settings": "BAEC incubated with C-reactive protein for 24 hours", "experimental": "U937 cells (CRL 1593.2; ATCC) were colorimetrically labelled with 0.2 mg/ml 3-(4,5-dimethylthiazol-2-yl)-2,5-diphenyltetrazolium bromide (MTT; Promega) in normal culture medium for 30 min at 37° C. The cells were collected by low-speed centrifugation and resuspended at a density of 2×10^5 cells/ml in medium without FCS. BAECs were seeded into 24-well plates and treated as desired in triplicate. After the treatment, BAECs were washed twice with RPMI-1640 medium. The MTT-labelled U937 cell suspension (200 μl/well) was then added into the BAEC cultures and incubated for 30 min at 37° C. Non-adherent cells were removed by rinsing the plates three times with PBS, and the number of adherent cells was counted under microscopy at least 4 fields per well."}}, "note": "“Also recorded” adds a separate entry of the source.", "data": [{"compound": "CCCCC/C=C\\C/C=C\\CCCCCCCC(=O)OC(COC(=O)CCCCCCCCCCCCCCC)COP(=O)([O-])OCC[N+](C)(C)C", "note": "(stereo not drawn) [PLPC]", "values": [{"measurement": "effect of the substance alone on adhesion molecule expression", "setting": "[1]; HUVEC", "value": "had no effect"}, {"measurement": "C-reactive protein-induced E-selectin expression, substance added simultaneously with C-reactive protein", "setting": "[2]; HUVEC, 35 μM, C-reactive protein 10 μg/ml 5 hrs, no pre-incubation", "value": "not"}, {"measurement": "inhibitory effect on C-reactive protein-induced adhesion molecule expression after 1-hour pre-incubation", "setting": "[2]; HUVEC, 1-hour pre-incubation", "value": "no inhibitory effect"}, {"measurement": "inhibitory effect on C-reactive protein-induced adhesion molecule expression when added simultaneously with C-reactive protein", "setting": "[2]; HUVEC, no pre-incubation", "value": "no inhibitory effect"}, {"measurement": "persistence of inhibitory effect when removed from the medium after 16-hour pre-incubation before C-reactive protein activation", "setting": "[2]; HUVEC, washout", "value": "did not persist"}]}, {"compound": "CCCCCCCC/C=C\\CCCCCCCC(=O)O[C@H](COC(=O)CCCCCCCCCCCCCCC)COP(=O)([O-])OCC[N+](C)(C)C", "note": "[POPC SUVs, 1-palmitoyl-2-oleoyl-sn-glycero-3-phosphocholine]", "values": [{"measurement": "effect on C-reactive protein-induced expression of adhesion molecules (E-selectin, ICAM-1, VCAM-1)", "setting": "[2]; HUVEC", "value": "no inhibitory effect"}, {"measurement": "effect of CuSO4-exposed phospholipid on C-reactive protein-induced adhesion molecule expression", "setting": "[2]; HUVEC, control exposed to CuSO4", "value": "did not affect"}]}, {"compound": "CC(Cc1ccc(O)c(O)c1)C(C)Cc1ccc(O)c(O)c1", "note": "(stereo not drawn) [nordihydroguaiaretic acid]", "values": [{"measurement": "effect of antioxidant on PLPC-dependent inhibition of C-reactive protein-induced E-selectin expression", "setting": "[2]", "value": "reversed in a dose-dependent manner"}, {"measurement": "effect of antioxidant on PLPC-dependent inhibition of C-reactive protein-induced E-selectin expression", "setting": "[2]; listed as NDGA", "value": "completely abolish"}]}, {"compound": "C[N+](C)(C)CCOP(=O)(O)O", "note": "[phosphorylcholine]", "values": [{"measurement": "effect on the C-reactive protein's activity", "setting": "[2]; up to 100 μM added to the medium", "value": "had no effect"}]}, {"compound": "CCCCCCCCCCC[C@@H](C[C@@H]1OC(=O)[C@H]1CCCCCC)OC(=O)[C@H](CC(C)C)NC=O", "note": "[tetrahydrolipstatin]", "values": [{"measurement": "effect of lipase inhibitor treatment of cells on the anti-inflammatory activity of PLPC", "setting": "[2]; HUVEC", "value": "not affected"}]}, {"compound": "Cc1c(C)c2c(c(C)c1O)CC[C@@](C)(CCC[C@H](C)CCC[C@H](C)CCCC(C)C)O2", "note": "[α-tocopherol]", "values": [{"measurement": "effect of the substance alone on adhesion molecule expression", "setting": "[1]; HUVEC", "value": "had no effect"}, {"measurement": "effect of antioxidant on PLPC-dependent inhibition of C-reactive protein-induced E-selectin expression", "setting": "[2]", "value": "reversed in a dose-dependent manner; also recorded: completely abolish"}]}, {"compound": "C-reactive protein: recombinant human C-reactive protein (Calbiochem), proinflammatory stimulus", "values": [{"measurement": "increase in adhesion of U937 cells to BAEC", "setting": "[3]", "value": "more than 6 fold"}, {"measurement": "concentration at which dose-dependent activity reaches a maximum", "setting": "[1]; E-selectin expression, HUVEC stimulated 5 hrs", "value": "10 to 20", "unit": "µg/mL"}, {"measurement": "cell surface expression of E-selectin VCAM-1 and ICAM-1", "setting": "[1]; HUVEC treated with C-reactive protein (10 μg/ml, 5 hrs)", "value": "significant increase"}, {"measurement": "inflammatory effect in fresh serum-free medium", "setting": "[1]; HUVEC, fresh (unconditioned) serum-free medium", "value": "no inflammatory effect"}, {"measurement": "effect of heating at 65° C. for 1 hour on activity (E-selectin induction)", "setting": "[1]; HUVEC", "value": "completely eliminated"}]}, {"compound": "Lipopolysaccharide [LPS]", "values": [{"measurement": "induction of adhesion molecule expression", "setting": "[1]; HUVEC, concentrations of up to 1 ng/ml", "value": "insufficient to induce"}, {"measurement": "effect of heating at 65° C. for 1 hour on activity (E-selectin induction)", "setting": "[1]; HUVEC", "value": "did not alter"}]}, {"compound": "lipid-free apoA-I: lipid-free apolipoprotein A-I, the protein component of rHDL", "values": [{"measurement": "effect on C-reactive protein-induced expression of adhesion molecules (E-selectin, ICAM-1, VCAM-1)", "setting": "[2]; HUVEC", "value": "had no effect"}]}]}
